Assay results: patent US6482819B1, “2,3-benzodiazepine derivatives” (Gyogyszerkutato Intezet Kft., priority 1997, dated 2002)

Assays:
[1] = test system: CD 1 mice; test: Muscle relaxant activity, rotarod test; format: in vivo; conditions: Mus musculus, ip
Experimental: (§1) The muscle relaxant activity of the compounds of general formula (I) was measured in the “inclined screen” test of Randall [J. Pharmacol. Exp. Ther. 129, 163 (1960)] and in the rotarod test [J. Am. Pharm. Assoc. 46, 208 (1975)]. The compounds were administered in 3 i. p. doses to ten CD 1 mice in each dose group.

[2] = test system: CD 1 mice; test: Muscle relaxant activity, inclined screen test; format: in vivo; conditions: Mus musculus, ip
Experimental: as §1

[3] = test system: anesthesized rats, middle cerebral artery occlusion; test: Inhibition of focal ischemia, middle cerebral artery occlusion (MCAO) test; format: in vivo; conditions: for Infarcted area in percent of cerebral hemosphere / Score of infarcted area (size of infarcted area) / Change % of size of infarcted area: MCAO; for Change % of size of infarcted area: versus vehicle
Experimental: The focal ischemia inhibiting effect of the compound of Example 17 was studied on the “middle cerebral artery occlusion” (MCAO) test in anesthesized rats. […] After histological processing the developed infarcted area was measured by a computerized scanner program [R. T. Bartus: Stroke 11, 2265 (1994) and S. G. Sydserff: Brit. J. Pharmacol. 114, 1631 (1995)].

[4] = test system: electroshock convulsions in mice; test: Anticonvulsive effect, electroshock test; format: in vivo; conditions: Mus musculus, po, 60 minutes pretreatment
Experimental: (§2) In Table I the anticonvulsive effect of some compounds of the invention in the electroshock test is presented [J. Pharmacol. Exp. Ther. 106, 319 (1952)]. The anticonvulsive effect was also studied in convulsions induced by various chemical agents, e. g. pentetrazole [J. Pharmacol. Exp. Ther 108, 168 (1953)], strychnine [J. Pharmacol. Exp. Ther. 129, 75 (1960)], bemegride, nicotine, bicuculline, 4-aminopyridine and 3-mercaptopropionic acid. The pretreatment period was 60 minutes. The test compounds were administered orally in 3 doses to 10 male CD 1 mice in each dose group.

[5] = test system: AMPA receptors (AMPA induced current, Purkinje cells); test: Inhibition of AMPA induced whole cell currents on Purkinje cells of the cerebellum; format: cell-based
Experimental: (§3) Inhibition of AMPA and Kainate Induced Transmembrane Currents
(§4) The effect of the compound of Example 17 on whole cell currents induced by 100 μM kainate or 5 μM AMPA, resp., was studied on Purkinje cells of the cerebellum according to the method of Bleakman et al. [Neuropharmacology 12, 1689 (1996)]. […] In this preparation kainate was also exerting its effect through the activation of AMPA receptors.

[6] = test system: AMPA receptors (kainate induced current, Purkinje cells); test: Inhibition of kainate induced whole cell currents on Purkinje cells of the cerebellum; format: cell-based; conditions: 100 μM kainate, read-out: IC50 against kainate, whole cell currents
Experimental: as §3, §4

[7] = test system: bicuculline induced convulsions in mice; test: Anticonvulsive effect, bicuculline induced convulsions; format: in vivo; conditions: Mus musculus, po, 60 minutes pretreatment
Experimental: as §2

[8] = test system: nicotine induced convulsions in mice; test: Anticonvulsive effect, nicotine induced convulsions; format: in vivo; conditions: Mus musculus, po, 60 minutes pretreatment
Experimental: as §2

[9] = test system: AMPA (5 μM) induced spreading depression, isolated chicken retina; test: Inhibition of AMPA induced spreading depression in the isolated chicken retina preparation; format: cell-based; conditions: Gallus gallus
Source text: (§5) In the first model the “spreading depression” inducing effect of glutamate agonists was studied, while in the second model the transmembrane ion current induced by the activation of glutamate receptors was directly measured.
(§6) Inhibition of AMPA and Kainate Induced “Spreading depression” in the Isolated Chicken Retina Preparation
(§7) The kainate and AMPA antagonizing effect was studied in vitro in the retinal “spreading depression” model [M. J. Sheardown: Brain Res. 607, 189 (1993)]. The AMPA/kainate antagonists extend the latency of the kainate (5 μM) or AMPA (5 μM) induced development of “spreading depression”.

[10] = test system: kainate (5 μM) induced spreading depression, isolated chicken retina; test: Inhibition of kainate induced spreading depression in the isolated chicken retina preparation; format: cell-based; conditions: Gallus gallus
Source text: as §5, §6, §7

[11] = test system: pentetrazole induced convulsions in mice; test: Anticonvulsive effect, pentetrazole induced convulsions; format: in vivo; conditions: Mus musculus, po, 60 minutes pretreatment
Experimental: as §2

[12] = test system: bemegride induced convulsions in mice; test: Anticonvulsive effect, bemegride induced convulsions; format: in vivo; conditions: Mus musculus, po, 60 minutes pretreatment
Experimental: as §2

## NCC(CC(=O)O)c1ccc(Cl)cc1 (stereo not drawn) [Baclofen, reference compound]
[1]
  ED50: 13 mg/kg
[2]
  ED50: 26 mg/kg

## Cc1cn2c(n1)Cc1ccc(Cl)cc1C(c1ccc(N)cc1)=N2 [Example 17]
[3]; 6×1 mg/kg i.v.
  Rate of cerebral cell damage induced by occlusion of the middle cerebral artery: significantly reduced
[3]; 6 × 1 mg/kg i.v.
  Infarcted area in percent of cerebral hemosphere: 13.4 ± 3.64%
  Score of infarcted area (size of infarcted area): 16122 ± 4368
  Change % of size of infarcted area: −60.2%
[3]; 6 × 2 mg/kg i.v.
  Infarcted area in percent of cerebral hemosphere: 11.0 ± 1.93%
  Score of infarcted area (size of infarcted area): 13229 ± 2313
  Change % of size of infarcted area: −67.4%
[1]
  ED50: 16 mg/kg
[2]
  ED50: 36 mg/kg
[4]
  ED50: 24 mg/kg
[5]; Purkinje cells of the cerebellum, 5 μM AMPA, read-out: IC50 against AMPA, whole cell currents
  IC50: 2.02 µM
[5]; Purkinje cells, compared by IC50 values
  Inhibition of ion current induced by AMPA receptor activation relative to GYKI 52466: twice as strongly inhibited
[6]
  IC50: 4.97 µM
other
  melting point: 229 to 230 °C
[7]
  ED50: 23 mg/kg
[8]
  ED50: 13 mg/kg
[9]
  IC50: 7.3 µM
[10]
  IC50: 2.5 µM

## O=C1NC(=O)C(c2ccccc2)(c2ccccc2)N1 [Phenytoin, reference compound]
[4]
  ED50: 10 mg/kg
[11]
  ED50: > 400 mg/kg
[8]
  ED50: 12 mg/kg
[12]
  ED50: > 200 mg/kg
